Laboratory results taken from US9193736B2, “PDE 10a inhibitors for the treatment of type II diabetes” (Janssen Pharmaceutica, NV, priority 2013, dated 2015).
Structures can show the parent of a compound that is named as a salt.

Key:
[1] = target: Rat recombinant PDE10a (rPDE10a) (Rattus norvegicus (Rat), UniProt Q9QYJ6); test: In vitro assay PDE10a: rat recombinant PDE10a SPA with 3H-cAMP substrate, IC50; assay type: biochemical; conditions: 60 nM cAMP, read-out: rPDE10a2 IC50
Procedure, shortened: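 Enzyme expressed in Sf9 cells via baculovirus and Ni-sepharose purified; reaction with 3H-cAMP ran 60 min at rt, stopped with PDE SPA beads. Compounds diluted in DMSO at 100-fold final concentration; blanks omitted enzyme.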

[2] = target: Human recombinant PDE10A2 (Homo sapiens (Human), UniProt Q9Y233); test: In vitro hPDE10a: human recombinant PDE10A2 scintillation proximity assay, IC50; assay type: biochemical; conditions: human recombinant PDE10A2, SPA, 60 nM cAMP; read-out: hPDE10a2 IC50
Human recombinant PDE10A2, sequence (Q9Y233 267-1055): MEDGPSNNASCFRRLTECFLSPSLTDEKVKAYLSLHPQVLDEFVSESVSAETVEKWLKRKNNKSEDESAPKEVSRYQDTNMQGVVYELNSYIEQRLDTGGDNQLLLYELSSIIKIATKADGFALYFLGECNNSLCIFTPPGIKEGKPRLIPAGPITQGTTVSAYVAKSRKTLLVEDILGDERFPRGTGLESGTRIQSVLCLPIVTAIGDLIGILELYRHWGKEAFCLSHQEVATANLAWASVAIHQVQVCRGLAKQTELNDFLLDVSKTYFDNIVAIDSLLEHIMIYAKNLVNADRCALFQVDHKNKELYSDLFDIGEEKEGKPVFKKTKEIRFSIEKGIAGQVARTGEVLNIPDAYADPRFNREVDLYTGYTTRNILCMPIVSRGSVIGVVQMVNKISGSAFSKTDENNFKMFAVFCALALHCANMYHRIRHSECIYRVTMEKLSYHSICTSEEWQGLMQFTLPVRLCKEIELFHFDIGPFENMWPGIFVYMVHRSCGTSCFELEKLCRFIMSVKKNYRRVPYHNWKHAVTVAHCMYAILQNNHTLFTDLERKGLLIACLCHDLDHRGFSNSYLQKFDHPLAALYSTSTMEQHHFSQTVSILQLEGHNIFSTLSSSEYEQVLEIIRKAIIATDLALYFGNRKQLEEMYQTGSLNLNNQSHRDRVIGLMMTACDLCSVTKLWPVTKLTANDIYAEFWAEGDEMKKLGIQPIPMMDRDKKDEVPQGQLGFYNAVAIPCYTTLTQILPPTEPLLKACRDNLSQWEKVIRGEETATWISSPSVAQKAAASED
Procedure, shortened: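 Purified recombinant human PDE10A2 (Ni-sepharose) was assayed by SPA, counting [3H]-AMP product captured on yttrium silicate beads added in zinc sulphate stop solution. Inhibition was expressed as % of activity without compound, with a no-enzyme low control. Repeat data points were aggregated.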

[3] = PDE10a perfused brain permeability study: plasma concentrations at 30 and 120 min, brain concentration at 120 min, brain/plasma ratio; conditions: male, Sprague-Dawley, rat; for Kp at 2 h: brain/plasma
Method: PDE10a-Brain Permeability Assay
A. PDE10a-Perfused Brain Permeability Study Protocol
Drug administration by oral gavage, subcutaneous injection or intravenous was carried out using male Sprague Dawley rats under IACUC protocol (SH-MET3010). Male Sprague Dawley rats (Charles River) ˜300-350 g were maintained on a 4% standard rodent diet (Test Diet 5001). They are allowed ad libitum access to water and food. Room temperature was maintained at 64° F. and humidity at 30-70%.
Three animals per compound were provided a dose of 2 mg/mL in 20% HpbCD/Tris pH 8 by tail i.v. or 30 mpk p.o. or s.c. in 20% HpbCD/Tris pH 8, with PDE10a antagonists. A first blood sample was collected at 30 min via retro-orbital sinus (anesthetic by 70% CO2/30% O2) into heparinzed plasma separator tubes. The blood was centrifuged and 100 μL plasma was placed into a 96 well plate and saved on dry ice.
After the 120 min, the final blood sample was collected via retro-orbital sinus under anesthesia by IP 0.5 cc injection of a 4/1 mixture of Ketaset: AnaSed [(prepared 10 mL Ketaset (100 mg/mL Ketamine)+2.5 mL AnaSed (20 mg/mL Xylazine)]. The rats were then perfused with 400 mL heparinized saline (10,000 units/L) through the left ventricle of the heart; the brains were then removed (not including the medulla), weighed and homogenized in PBS (4 mL/g tissue). The samples were stored at −80° C. and submitted for chemical analysis of blood and brain concentrations. Endpoints of sample analysis consists of the plasma concentrations at 30 and 120 min, plus brain concentrations at 120 min.

Rat recombinant PDE10a (rPDE10a), sequence (Q9QYJ6 whole entry): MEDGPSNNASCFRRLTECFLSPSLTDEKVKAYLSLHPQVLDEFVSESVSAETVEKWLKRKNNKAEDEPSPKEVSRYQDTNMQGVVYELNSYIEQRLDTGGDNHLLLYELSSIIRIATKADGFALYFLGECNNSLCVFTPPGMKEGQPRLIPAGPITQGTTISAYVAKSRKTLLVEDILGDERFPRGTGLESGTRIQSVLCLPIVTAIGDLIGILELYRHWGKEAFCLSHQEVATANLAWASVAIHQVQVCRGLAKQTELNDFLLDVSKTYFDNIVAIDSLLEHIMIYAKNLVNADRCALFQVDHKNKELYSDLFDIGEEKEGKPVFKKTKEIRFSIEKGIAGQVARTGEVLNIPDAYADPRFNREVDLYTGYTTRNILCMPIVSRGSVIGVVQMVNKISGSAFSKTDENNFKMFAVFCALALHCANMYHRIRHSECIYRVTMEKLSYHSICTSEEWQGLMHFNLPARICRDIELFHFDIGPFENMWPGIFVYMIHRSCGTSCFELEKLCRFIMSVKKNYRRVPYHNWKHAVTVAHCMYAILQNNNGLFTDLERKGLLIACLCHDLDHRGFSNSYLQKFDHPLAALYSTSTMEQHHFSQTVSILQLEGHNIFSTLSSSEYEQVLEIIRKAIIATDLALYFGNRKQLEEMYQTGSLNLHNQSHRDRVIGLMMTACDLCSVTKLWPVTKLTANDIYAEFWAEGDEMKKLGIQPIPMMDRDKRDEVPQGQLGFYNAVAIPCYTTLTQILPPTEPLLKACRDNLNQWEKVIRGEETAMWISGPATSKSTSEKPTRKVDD

| IC50 [1] [nM] | IC50 [2] [nM] | concentration at 2 h ([3]; brain) [ng/g] | Kp at 2 h [3] | concentration at 2 h ([3]; plasma) [ng/mL] | Structure (SMILES) |
| --- | --- | --- | --- | --- | --- |
| 6 | 3 | 60.7 | 0.02 | 2840 | O=C(O)C1CCN(c2ccc(-c3c(/C=C/c4ccc5ccccc5n4)nc4c(N5CCOCC5)ccnn34)cc2)CC1 [Cpd 100, (E)-1-(4-(8-Morpholino-2-(2-(quinolin-2-yl)vinyl)imidazo[1,2-b]pyridazin-3-yl)phenyl)piperidine-4-carboxylic acid trifluoroacetic acid salt] |
| 13 | 13 | 34.7 | 0.04 | 857 | Cn1nc(-c2ccc(-c3c(/C=C/c4ccc5ccccc5n4)nc4c(N5CCOCC5)ccnn34)cc2)nc1O [Cpd 74, (E)-2-Methyl-5-(4-(8-morpholino-2-(2-(quinolin-2-yl)vinyl)imidazo[1,2-b]pyridazin-3-yl)phenyl)-2H-1,2,4-triazol-3-ol] |
| 813 | 603 | 38.8 | 1.16 | 33.7 | O=C(Nc1nc2c(N3CCOCC3)ccnn2c1-c1ccc(N2CCNCC2)nc1)c1ccc2ccccc2n1 [Cpd 8, N-(8-Morpholino-3-(6-(piperazin-1-yl)pyridin-3-yl)imidazo[1,2-b]pyridazin-2-yl)quinoline-2-carboxamide trifluoroacetic acid salt] |
| 7 | 5 | 9.3 | 0.02 | 568 | O=C(O)c1ccc(-c2c(/C=C/c3ccc4c(n3)CCCC4)nc3c(N4CCOCC4)ccnn23)cc1 [Cpd 76, (E)-4-(8-Morpholino-2-(2-(5,6,7,8-tetrahydroquinolin-2-yl)vinyl)imidazo[1,2-b]pyridazin-3-yl)benzoic acid] |
| 1 | 2 | 0 | 0 | 1.8 | CS(=O)(=O)NC(=O)c1ccc(-c2c(CCc3ccc4ccccc4n3)nc3c(N4CCOCC4)ccnn23)cc1 [compound 43, N-(Methylsulfonyl)-4-(8-morpholino-2-(2-(quinolin-2-yl)ethyl)imidazo[1,2-b]pyridazin-3-yl)benzamide] |
| 2 | 2 | 0 | 0 | 499 | O=C(O)c1ccc(-c2c(/C=C/c3ccc4ccccc4n3)nc3c(N4CCOCC4)ccnn23)cc1 [compound 40, (E)-4-(8-Morpholino-2-(2-(quinolin-2-yl)vinyl)imidazo[1,2-b]pyridazin-3-yl)benzoic acid trifluoroacetic acid salt] |
| 6 | 9 | 0 | 0 | 35 | O=C(O)CCC(=O)Nc1ccc(-c2c(/C=C/c3ccc4ccccc4n3)nc3c(N4CCOCC4)ccnn23)cc1 [compound 48, (E)-4-((4-(8-Morpholino-2-(2-(quinolin-2-yl)vinyl)imidazo[1,2-b]pyridazin-3-yl)phenyl)amino)-4-oxobutanoic acid] |
| 2 | 18 | 152 | 0.31 | 492 | NS(=O)(=O)N1CCN(c2ccc(-c3c(CSc4ccc5ccccc5n4)nc4c(N5CCOCC5)ccnn34)cn2)CC1 [Cpd 20, 4-(5-(8-Morpholino-2-((quinolin-2-ylthio)methyl)imidazo[1,2-b]pyridazin-3-yl)pyridin-2-yl)piperazine-1-sulfonamide] |
| 2 | 3 | 0 | 0 | 15.7 | O=C(O)CNc1ccc(-c2c(/C=C/c3ccc4ccccc4n3)nc3c(N4CCOCC4)ccnn23)cn1 [Cpd 17, (E)-2-(5-(8-Morpholino-2-(2-(quinolin-2-yl)vinyl)imidazo[1,2-b]pyridazin-3-yl)pyridin-2-ylamino)acetic acid] |
| 11 | 7 | 0 | 0 | 23 | Oc1ncn(-c2ccc(-c3c(/C=C/c4ccc5ccccc5n4)nc4c(N5CCOCC5)ccnn34)cc2)n1 [Cpd 54, (E)-1-(4-(8-Morpholino-2-(2-(quinolin-2-yl)vinyl)imidazo[1,2-b]pyridazin-3-yl)phenyl)-1H-1,2,4-triazol-3-ol trifluoroacetic acid salt] |
| 25 | 20 | 52 | 0.39 | 135 | c1ccc2nc(SCc3nc4c(N5CCOCC5)ccnn4c3-c3ccc(N4CCNCC4)nc3)ccc2c1 [Cpd 6, 4-(3-(6-(piperazin-1-yl)pyridin-3-yl)-2-((quinolin-2-ylthio)methyl)imidazo[1,2-b]pyridazin-8-yl)morpholine trifluoroacetic acid salt] |
| 2 | 1 | 40.2 | 2.5 | 107 | CS(=O)(=O)NC(=O)c1ccc(-c2c(CCc3ccc4ccccc4n3)nc3c(N4CCOCC4)ccnn23)cn1 [Cpd 30, N-(Methylsulfonyl)-5-(8-morpholino-2-(2-(quinolin-2-yl)ethyl)imidazo[1,2-b]pyridazin-3-yl)picolinamide trifluoroacetic acid salt] |
| 2 | 2 | 0 | 0 | 284 | O=C(O)CCc1ccc(-c2c(/C=C/c3ccc4ccccc4n3)nc3c(N4CCOCC4)ccnn23)cn1 [Cpd 125, (E)-3-(5-(8-Morpholino-2-(2-(quinolin-2-yl)vinyl)imidazo[1,2-b]pyridazin-3-yl)pyridin-2-yl)propanoic acid] |
| 1 | 1 | 0 | 0 | 34 | CC(=O)NS(=O)(=O)c1ccc(-c2c(CCc3ccc4ccccc4n3)nc3c(N4CCOCC4)ccnn23)cc1 [compound 42, N-((4-(8-Morpholino-2-(2-(quinolin-2-yl)ethyl)imidazo[1,2-b]pyridazin-3-yl)phenyl)sulfonyl)acetamide] |
| 2 | 2 | 1.69 | 0.005 | 438 | CS(=O)(=O)NC(=O)c1ccc(-c2c(/C=C/c3ccc4ccccc4n3)nc3c(N4CCOCC4)ccnn23)cn1 [Cpd 27, (E)-N-(Methylsulfonyl)-5-(8-morpholino-2-(2-(quinolin-2-yl)vinyl)imidazo[1,2-b]pyridazin-3-yl)picolinamide trifluoroacetic acid salt] |
| 3 | 5 | 0 | 0 | 147 | CS(=O)(=O)NC(=O)c1ccc(-c2c(/C=C/c3ccc4ccccc4n3)nc3c(N4CCOCC4)ccnn23)cc1 [compound 39, (E)-N-(Methylsulfonyl)-4-(8-morpholino-2-(2-(quinolin-2-yl)vinyl)imidazo[1,2-b]pyridazin-3-yl)benzamide] |
| 1 | 4 | 0 | 0 | 83 | O=C(O)CCNC(=O)c1ccc(-c2c(/C=C/c3ccc4ccccc4n3)nc3c(N4CCOCC4)ccnn23)cc1 [compound 44, (E)-3-(4-(8-Morpholino-2-(2-(quinolin-2-yl)vinyl)imidazo[1,2-b]pyridazin-3-yl)benzamido)propanoic acid] |
